# In paper PMC10269561, “Absence of Clinically Meaningful Drug-Drug Interactions with Rezafungin: Outcome of Investigations” (Microbiology Spectrum, 2023):
# Numbered stars: 1 amine (or outer) side, 2 acyl side, 3 side chain; on linkers, the order of the positions; unused ones are H or OH. Bridge positions count the residues as written; N and C are the ends. Square brackets hold non-standard residues; d marks the D form. Peptide text beside a SMILES is read from it. * marks the point of attachment. Orn(4R-OH,5R-OCH2CH2NMe3+) = C[N+](C)(C)CCO[C@@H](N[*:3])[C@H](O)C[C@H](N[*:1])C(=O)[*:2]; pTerphenylCO(4''-OnC5H11) = CCCCCOc1ccc(-c2ccc(-c3ccc(C(=O)*)cc3)cc2)cc1; hTyr(3S-OH,4S-OH) = N[C@H](C(=O)O)[C@H](O)[C@@H](O)c1ccc(O)cc1; Pro(3S-OH,4S-Me) = C[C@H]1CN[C@H](C(=O)O)[C@H]1O; Hyp = O=C(O)[C@@H]1C[C@@H](O)CN1
# Assays:
# [1] = Study 1 safety and tolerability (TEAEs); type: in vivo, human
# Method: After screening, subjects were admitted to the clinical research unit (CRU) prior to the first dose of rezafungin (from day −22) and were discharged from the CRU on day 22. Nine oral substrate drugs were administered as part of a cocktail containing two or more drugs once before and once after receiving rezafungin on a schedule designed to allow the washout of the drugs in the cocktail between doses and limit interactions with other drugs (Fig. 4A). […] A loading dose of rezafungin for injection (600 mg) was administered over 1 h on day 1, followed by two once-weekly 400-mg doses over 1 h on days 10 and 15. Due to a short delay in the availability of the investigation study drug, the second once-weekly dose of rezafungin and the second set of oral substrate drugs were administered on day 10 instead of day 8, although the time between doses remained sufficient for all originally planned PK samplings through 96 h postdose and for the adequate washout of the substrate drugs. The total duration of treatment was up to 89 days, including 45 days of screening and 44 days of treatment in the CRU.
# (§1) Microbiology Spectrum Supplementary materials
# Table S 2Summary of t reatment-emergent adverse e vents for Study 1
# System Organ Class Safety Population Adverse Event Severity(N=26), n Rezafungin Safety Population (N=26), n
# Adverse Event Mild Moderate Severe Mild Moderate Severe […]
# CYP3A4 = CYP3A4 (Homo sapiens, UniProt P08684); assay: NC-012 CYP450 inhibition screening, recombinant CYP3A4; type: in vitro ADME; settings: benzyloxyresorufin substrate, recombinant human CYP
# From the text: as §1
# (§2) Table S 4Summary of initial in vitro assessments […]
# (§3) whether rezafungin can induce CYP isoforms 1A2, 2B6, or 3A4. mRNA expression) of CYP1A2 and CYP2B6, and, in the case of […]
# (§4) Abbreviations: ABC = ATP binding cassette; BCRP = breast cancer resistance protein; BSEP = bile salt export pump; CYP = cytochrome P450; MATE = multidrug and toxic compound extrusion; MDCK = Madin-Darby canine kidney; MDR = multidrug resistance protein; mRNA = messenger ribonucleic acid; OAT = organic anion transporter; OATP = organic anion transporter protein; OCT – organic cation transporter; OCTN = organic cation transporter novel; P-gp = P-glycoprotein; SLC = solute carrier.
# BSEP = BSEP (Homo sapiens, UniProt O95342); assay: NC-152 BSEP inhibition in membrane vesicles; type: in vitro ADME
# From the text: as §1, §2, §3, §4
# human MATE1 = human MATE1 (Homo sapiens, UniProt Q96FL8); assay: NC-152 transporter inhibition, MATE1; type: in vitro ADME
# From the text: Abbreviations: ABC = ATP binding cassette; BCRP = breast cancer resistance protein; BSEP = bile salt export pump; CYP = cytochrome P450; MATE =
# multidrug and toxic compound extrusion; MDCK = Madin-Darby canine kidney; MDR = multidrug resistance protein; mRNA = messenger ribonucleic acid;
# OAT = organic anion transporter; OATP = organic anion transporter protein; OCT – organic cation transporter; OCTN = organic cation transporter novel; P-gp =
# P-glycoprotein; SLC = solute carrier.
# OCTN2 = OCTN2 (Homo sapiens, UniProt O76082); assay: NC-160 substrate interaction, OCTN2; type: in vitro ADME; settings: uptake SLC transporter
# From the text: as §1, §2, §3, §4
# human OAT3 = human OAT3 (Homo sapiens, UniProt Q8TCC7); assay: NC-152 transporter inhibition, OAT3; type: in vitro ADME; settings: in vitro cell test system
# From the text: as §1, §2, §3, §4
# CYP2C9 [2] = biological target: T1, CYP2C9 (Homo sapiens, UniProt P11712); assay: NC-153 time-dependent inhibition in human liver microsomes, CYP2C9; type: in vitro ADME; settings: 0.1 to 25 μM
# From the text: as §1, §2, §3, §4
# [3] = cited from earlier work
# From the text: Rezafungin is a novel echinocandin currently in development for the treatment of candidemia and invasive candidiasis as well as for prophylaxis against fungal diseases caused by Candida, Aspergillus, and Pneumocystis species in people undergoing allogeneic blood and marrow transplantation ([33][–][35]). […] It has als ...
# CYP2C9 [4] = biological target: T1, CYP2C9; assay: NC-012 CYP450 inhibition screening, recombinant CYP2C9; type: in vitro ADME; settings: 10 μM, fluorogenic substrate, recombinant human CYP
# From the text: as §1, §2, §3, §4
# CYP2C8 = biological target: T2, CYP2C8 (Homo sapiens, UniProt P10632); assay: NC-012 CYP450 inhibition screening, recombinant CYP2C8; type: in vitro ADME; settings: fluorogenic substrate, recombinant human CYP
# T2 sequence (P10632 1-490): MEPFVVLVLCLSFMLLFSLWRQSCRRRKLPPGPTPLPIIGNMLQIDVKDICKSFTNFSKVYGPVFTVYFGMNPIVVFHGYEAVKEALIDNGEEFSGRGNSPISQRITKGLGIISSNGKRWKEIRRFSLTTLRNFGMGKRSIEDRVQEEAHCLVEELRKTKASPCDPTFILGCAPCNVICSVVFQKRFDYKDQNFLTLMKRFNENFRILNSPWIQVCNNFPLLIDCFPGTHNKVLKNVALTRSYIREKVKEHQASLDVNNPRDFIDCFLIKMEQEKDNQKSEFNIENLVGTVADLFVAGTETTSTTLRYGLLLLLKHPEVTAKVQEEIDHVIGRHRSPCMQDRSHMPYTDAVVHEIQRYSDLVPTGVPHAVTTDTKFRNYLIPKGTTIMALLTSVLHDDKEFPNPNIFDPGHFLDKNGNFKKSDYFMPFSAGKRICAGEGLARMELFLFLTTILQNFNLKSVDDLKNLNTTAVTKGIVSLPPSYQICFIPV
# From the text: as §1, §2, §3, §4
# CYP1A2 = CYP1A2 (Homo sapiens, UniProt P05177); assay: NC-012 CYP450 inhibition screening, recombinant CYP1A2; type: in vitro ADME; settings: 10 μM, fluorogenic substrate, recombinant human CYP
# From the text: as §1, §2, §3, §4
# BCRP = BCRP (Homo sapiens, UniProt Q9UNQ0); assay: NC-049 BCRP substrate potential in Caco-2 monolayers; type: in vitro ADME; settings: with/without inhibitors
# From the text: as §1, §2, §3, §4
# MRP2 = MRP2 (Homo sapiens, UniProt Q92887); assay: NC-160 substrate interaction, MRP2; type: in vitro ADME; settings: efflux (ABC) transporter
# From the text: as §1, §2, §3, §4
# Sequence of human MATE1 (Q96FL8 whole entry): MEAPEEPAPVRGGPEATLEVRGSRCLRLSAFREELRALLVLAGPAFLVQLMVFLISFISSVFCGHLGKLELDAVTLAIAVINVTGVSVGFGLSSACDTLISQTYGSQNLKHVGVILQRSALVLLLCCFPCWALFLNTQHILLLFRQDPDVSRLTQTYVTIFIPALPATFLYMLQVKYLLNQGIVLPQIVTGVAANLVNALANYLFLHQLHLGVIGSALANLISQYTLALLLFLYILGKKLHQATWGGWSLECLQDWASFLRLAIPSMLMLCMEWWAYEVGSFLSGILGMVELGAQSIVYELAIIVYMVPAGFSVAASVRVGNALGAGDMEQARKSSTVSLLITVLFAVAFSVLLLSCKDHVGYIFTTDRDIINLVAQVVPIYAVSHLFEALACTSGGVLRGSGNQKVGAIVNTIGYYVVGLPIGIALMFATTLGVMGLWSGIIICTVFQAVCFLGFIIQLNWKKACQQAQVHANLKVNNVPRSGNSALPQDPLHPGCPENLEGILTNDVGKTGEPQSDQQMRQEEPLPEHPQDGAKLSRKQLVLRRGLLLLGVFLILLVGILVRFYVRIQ
# T1 sequence (P11712 whole entry): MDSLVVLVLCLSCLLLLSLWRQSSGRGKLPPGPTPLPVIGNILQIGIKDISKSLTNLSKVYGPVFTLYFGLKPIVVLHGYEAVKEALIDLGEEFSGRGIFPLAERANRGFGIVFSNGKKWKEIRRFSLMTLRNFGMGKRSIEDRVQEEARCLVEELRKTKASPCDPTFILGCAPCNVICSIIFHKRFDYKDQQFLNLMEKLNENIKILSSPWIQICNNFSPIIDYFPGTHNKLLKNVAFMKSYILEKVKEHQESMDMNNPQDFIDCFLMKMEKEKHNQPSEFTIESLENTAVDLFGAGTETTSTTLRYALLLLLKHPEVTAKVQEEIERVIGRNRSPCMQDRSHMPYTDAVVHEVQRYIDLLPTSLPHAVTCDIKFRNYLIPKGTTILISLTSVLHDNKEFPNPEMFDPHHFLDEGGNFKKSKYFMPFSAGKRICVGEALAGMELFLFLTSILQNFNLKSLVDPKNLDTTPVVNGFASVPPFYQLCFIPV
# Sequence of CYP3A4 (P08684 whole entry): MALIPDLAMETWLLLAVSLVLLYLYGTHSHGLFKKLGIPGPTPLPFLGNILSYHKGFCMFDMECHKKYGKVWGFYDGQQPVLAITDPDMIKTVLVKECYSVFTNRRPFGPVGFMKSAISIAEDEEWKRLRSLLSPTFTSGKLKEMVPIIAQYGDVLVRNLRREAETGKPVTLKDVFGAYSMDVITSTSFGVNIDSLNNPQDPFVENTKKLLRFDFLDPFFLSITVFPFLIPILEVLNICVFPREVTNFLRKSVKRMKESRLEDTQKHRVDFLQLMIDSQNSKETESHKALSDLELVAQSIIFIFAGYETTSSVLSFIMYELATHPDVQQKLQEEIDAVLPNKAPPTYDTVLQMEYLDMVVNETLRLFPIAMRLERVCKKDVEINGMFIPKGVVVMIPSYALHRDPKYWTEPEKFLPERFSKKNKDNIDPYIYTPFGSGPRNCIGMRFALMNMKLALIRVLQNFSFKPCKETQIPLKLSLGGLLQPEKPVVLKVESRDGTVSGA
# Sequence of BCRP (Q9UNQ0 whole entry): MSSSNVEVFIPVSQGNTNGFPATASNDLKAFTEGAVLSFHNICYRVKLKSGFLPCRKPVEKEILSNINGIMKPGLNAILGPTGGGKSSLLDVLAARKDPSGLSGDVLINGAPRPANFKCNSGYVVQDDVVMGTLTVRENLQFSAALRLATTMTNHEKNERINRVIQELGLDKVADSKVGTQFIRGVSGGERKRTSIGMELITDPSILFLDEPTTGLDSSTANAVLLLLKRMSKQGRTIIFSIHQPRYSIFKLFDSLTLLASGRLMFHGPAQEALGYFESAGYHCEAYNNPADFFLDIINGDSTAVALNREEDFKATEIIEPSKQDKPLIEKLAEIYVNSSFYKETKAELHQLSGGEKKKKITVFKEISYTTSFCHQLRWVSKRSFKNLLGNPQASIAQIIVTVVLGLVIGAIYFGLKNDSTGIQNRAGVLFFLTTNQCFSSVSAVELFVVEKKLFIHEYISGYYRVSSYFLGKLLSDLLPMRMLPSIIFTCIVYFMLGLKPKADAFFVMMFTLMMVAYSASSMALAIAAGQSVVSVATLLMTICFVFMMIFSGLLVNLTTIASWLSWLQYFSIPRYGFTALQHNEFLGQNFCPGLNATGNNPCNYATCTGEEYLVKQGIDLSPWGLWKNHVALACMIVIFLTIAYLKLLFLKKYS
# Sequence of OCTN2 (O76082 whole entry): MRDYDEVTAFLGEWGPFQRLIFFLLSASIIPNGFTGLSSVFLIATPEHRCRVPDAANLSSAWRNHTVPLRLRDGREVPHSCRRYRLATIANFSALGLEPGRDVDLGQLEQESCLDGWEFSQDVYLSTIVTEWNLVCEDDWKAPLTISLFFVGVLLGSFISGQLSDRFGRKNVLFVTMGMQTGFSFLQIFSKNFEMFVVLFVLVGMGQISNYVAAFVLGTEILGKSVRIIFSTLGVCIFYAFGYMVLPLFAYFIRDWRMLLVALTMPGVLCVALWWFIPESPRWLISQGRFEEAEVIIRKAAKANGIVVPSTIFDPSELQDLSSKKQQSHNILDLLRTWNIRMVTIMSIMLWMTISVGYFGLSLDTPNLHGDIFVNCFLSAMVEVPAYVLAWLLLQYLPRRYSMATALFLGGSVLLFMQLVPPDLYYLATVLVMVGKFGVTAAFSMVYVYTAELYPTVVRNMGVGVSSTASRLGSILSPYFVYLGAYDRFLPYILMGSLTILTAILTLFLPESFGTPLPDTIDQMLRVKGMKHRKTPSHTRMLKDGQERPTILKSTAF
# Sequence of MRP2 (Q92887 whole entry): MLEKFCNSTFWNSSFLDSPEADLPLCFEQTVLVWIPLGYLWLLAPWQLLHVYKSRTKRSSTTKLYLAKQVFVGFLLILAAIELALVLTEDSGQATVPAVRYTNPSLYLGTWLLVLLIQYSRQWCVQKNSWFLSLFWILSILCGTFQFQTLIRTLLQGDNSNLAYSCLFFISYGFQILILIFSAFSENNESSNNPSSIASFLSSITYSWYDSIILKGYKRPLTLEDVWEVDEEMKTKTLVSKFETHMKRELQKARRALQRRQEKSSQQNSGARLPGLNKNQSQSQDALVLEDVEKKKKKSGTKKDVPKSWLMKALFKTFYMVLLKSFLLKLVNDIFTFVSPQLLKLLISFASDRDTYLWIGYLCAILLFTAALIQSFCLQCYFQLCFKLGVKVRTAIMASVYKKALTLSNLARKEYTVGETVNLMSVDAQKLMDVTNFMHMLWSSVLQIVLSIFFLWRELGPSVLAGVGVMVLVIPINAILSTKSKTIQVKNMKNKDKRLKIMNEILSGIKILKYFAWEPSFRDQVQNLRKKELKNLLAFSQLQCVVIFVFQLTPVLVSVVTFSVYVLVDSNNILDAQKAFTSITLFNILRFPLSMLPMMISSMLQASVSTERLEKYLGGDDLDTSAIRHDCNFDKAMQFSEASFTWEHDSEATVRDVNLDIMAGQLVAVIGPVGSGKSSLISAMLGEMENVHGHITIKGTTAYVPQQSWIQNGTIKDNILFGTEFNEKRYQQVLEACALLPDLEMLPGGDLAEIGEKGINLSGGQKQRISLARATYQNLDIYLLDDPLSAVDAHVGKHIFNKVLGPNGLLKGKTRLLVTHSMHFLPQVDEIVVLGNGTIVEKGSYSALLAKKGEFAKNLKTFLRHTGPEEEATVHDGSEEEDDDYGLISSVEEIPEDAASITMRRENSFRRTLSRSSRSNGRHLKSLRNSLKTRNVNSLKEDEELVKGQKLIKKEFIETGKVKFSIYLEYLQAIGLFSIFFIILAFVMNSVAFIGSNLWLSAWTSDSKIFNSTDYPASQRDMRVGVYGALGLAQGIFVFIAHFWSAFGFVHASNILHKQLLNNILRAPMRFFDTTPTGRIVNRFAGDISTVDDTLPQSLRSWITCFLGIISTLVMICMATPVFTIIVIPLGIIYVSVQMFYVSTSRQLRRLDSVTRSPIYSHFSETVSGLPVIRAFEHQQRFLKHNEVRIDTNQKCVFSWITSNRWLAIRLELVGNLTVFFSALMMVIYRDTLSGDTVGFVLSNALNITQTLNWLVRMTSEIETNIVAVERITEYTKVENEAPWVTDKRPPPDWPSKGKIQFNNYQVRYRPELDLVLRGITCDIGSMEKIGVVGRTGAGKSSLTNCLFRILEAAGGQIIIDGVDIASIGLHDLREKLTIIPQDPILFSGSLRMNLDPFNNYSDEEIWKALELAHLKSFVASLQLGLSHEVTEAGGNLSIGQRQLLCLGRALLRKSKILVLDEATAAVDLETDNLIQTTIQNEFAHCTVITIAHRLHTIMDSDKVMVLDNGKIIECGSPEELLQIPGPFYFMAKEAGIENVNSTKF
# Sequence of human OAT3 (Q8TCC7 whole entry): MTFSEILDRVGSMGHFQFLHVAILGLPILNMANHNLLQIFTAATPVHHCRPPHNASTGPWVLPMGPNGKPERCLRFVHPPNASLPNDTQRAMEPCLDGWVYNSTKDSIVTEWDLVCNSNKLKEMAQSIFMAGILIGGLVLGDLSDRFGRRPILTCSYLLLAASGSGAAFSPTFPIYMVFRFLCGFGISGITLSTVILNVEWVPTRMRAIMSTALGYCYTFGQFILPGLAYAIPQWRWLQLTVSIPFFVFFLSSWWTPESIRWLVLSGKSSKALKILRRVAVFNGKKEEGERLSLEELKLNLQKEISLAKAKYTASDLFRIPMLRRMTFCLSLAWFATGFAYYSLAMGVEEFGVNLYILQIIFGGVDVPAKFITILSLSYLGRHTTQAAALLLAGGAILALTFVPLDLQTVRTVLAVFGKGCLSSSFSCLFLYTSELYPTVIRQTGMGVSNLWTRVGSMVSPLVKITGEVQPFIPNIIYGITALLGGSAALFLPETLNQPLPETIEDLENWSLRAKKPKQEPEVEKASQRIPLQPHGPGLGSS
structure (smiles),measurement,setting,value
"CCCCCOc1ccc(-c2ccc(-c3ccc(C(=O)N[C@H]4C[C@@H](O)[C@@H](OCC[N+](C)(C)C)NC(=O)[C@@H]5[C@@H](O)[C@@H](C)CN5C(=O)[C@H]([C@@H](C)O)NC(=O)[C@H]([C@H](O)[C@@H](O)c5ccc(O)cc5)NC(=O)[C@@H]5C[C@@H](O)CN5C(=O)[C@H]([C@@H](C)O)NC4=O)cc3)cc2)cc1 [Rezafungin] ({pTerphenylCO(4''-OnC5H11)}-[Orn(4R-OH,5R-OCH2CH2NMe3+)]T[Hyp][hTyr(3S-OH,4S-OH)]T[Pro(3S-OH,4S-Me)]; lactam 1-C)","serious TEAEs, deaths, discontinuations due to a TEAE",[1]; Study 1,no serious TEAEs or deaths or discontinuations due to a TEAE
same,tolerability,"[1]; once-weekly i.v. infusions, 600-mg loading dose followed by two 400-mg maintenance doses",generally well tolerated
same,inhibition at 10 µM,CYP3A4,81%
same,inhibitor of probe substrate transport mediated via BSEP,BSEP,not
same,inhibitor of probe substrate transport mediated via MATE1,"human MATE1; in vitro cell test system, NC-152",determined to be an inhibitor
same,IC50,"human MATE1; initial in vitro studies, read-out: IC50, MATE-1 uptake transporter (moderate inhibition)",> 6 µM
same,substrate of OCTN2,OCTN2,not a substrate
same,inhibitor of probe substrate transport mediated via OAT3,human OAT3,not
same,time-dependent inhibitor of CYP2C9,CYP2C9 [2],not a time-dependent inhibitor
same,half-life,[3],around 130 h
same,chemical stability,"[3]; incubated in phosphate-buffered saline, no evidence of reactive intermediate formation",chemically stable
same,metabolic stability in hepatocytes,[3]; preclinical data,metabolically stable
same,metabolic stability in liver microsomes,[3]; preclinical data,metabolically stable
same,inhibition of CYP2C9,CYP2C9 [4],Minimal inhibition
same,inhibition at 10 µM,CYP2C8,63%
same,inhibition of CYP1A2,CYP1A2,Minimal inhibition
same,substrate of BCRP,BCRP,not a substrate
same,substrate of MRP2,MRP2,not a substrate
